Values of other authors in patent US12545694B2, “Cannabidiol derivatives, preparation method thereof and use thereof” (CHENGDU BAIYU PHARMACEUTICAL CO., LTD., priority 2020, dated 2026).

Conditions: human

C=C(C)[C@@H]1CCC(C)=C[C@H]1c1c(O)cc(CCCCC)cc1O [CBD, cannabidiol]
oral bioavailability: about 6%
